Source: US8518869B2, “Pharmaceutical combined preparation containing a therapeutic protein” (Austria Wirtschaftsservice Gesellschaft m.b.H., priority 2004, dated 2013)

Columns and labels:
[1] = Description: It is understood that often arrangements must be made also for the storage of the preparation according to the invention so that said preparation will remain stable over an extended period of time. […] Hereby, it is possible to store the low-molecular thiol compound and the nitrosated protein of the preparation according to the invention both in combined and in separate form.
[2] = test system: collagen-induced platelet aggregation; assay: collagen-induced platelet aggregation in human plasma rich in thrombocytes (aggregometer, method by Born); type: cell-based; conditions: 300 μmol/L, ~1 μg collagen/mL TRP
Protocol: The platelet aggregation was performed with human plasma rich in thrombocytes (TRP) in a Dual Kanal Chronolog Aggregometer basically according to the method by Born (1969). At the onset of each experiment, the exact dose of collagen was determined for the aggregation induced by collagen (˜1 μg collagen/mL TRP) (95-100% inhibition of the collagen-induced aggregation by 300 μmol/L of acetylsalicylic acid). […] After another minute, aggregation was induced with collagen. Control experiments with collagen alone were carried out after every second to third measurement. […] In experiments with different thiol- and non-thiol-containing substances (N-acetyl-L-cysteine, ascorbic acid, DL-homocysteine, taurine, L-cysteine), pre-incubation was effected primarily with those substances, in analogy to the trials using reduced glutathione.

Compound	pH-value at which stability in solution is greatest [1]	inhibition at 300 µM [2] [%]
N[C@@H](CS)C(=O)O [L-cysteine]	< 7	–
CC(=O)Oc1ccccc1C(=O)O [acetylsalicylic acid]	–	95 to 100
haemoglobin	6 and 7	–
